{"source": "patent US12398119B2", "about": "“Piperazine azaspiro derivatives” (PFIZER INC., priority 2018, dated 2025)", "target": "T1, Human M4 mAChR (Homo sapiens, UniProt P08173)", "T1 construct": "host or cells: HEK293 (Sor-L9 HEK293 human/M4/GloSensor Cell Clone Number 40)", "T1 sequence (P08173 1-479)": "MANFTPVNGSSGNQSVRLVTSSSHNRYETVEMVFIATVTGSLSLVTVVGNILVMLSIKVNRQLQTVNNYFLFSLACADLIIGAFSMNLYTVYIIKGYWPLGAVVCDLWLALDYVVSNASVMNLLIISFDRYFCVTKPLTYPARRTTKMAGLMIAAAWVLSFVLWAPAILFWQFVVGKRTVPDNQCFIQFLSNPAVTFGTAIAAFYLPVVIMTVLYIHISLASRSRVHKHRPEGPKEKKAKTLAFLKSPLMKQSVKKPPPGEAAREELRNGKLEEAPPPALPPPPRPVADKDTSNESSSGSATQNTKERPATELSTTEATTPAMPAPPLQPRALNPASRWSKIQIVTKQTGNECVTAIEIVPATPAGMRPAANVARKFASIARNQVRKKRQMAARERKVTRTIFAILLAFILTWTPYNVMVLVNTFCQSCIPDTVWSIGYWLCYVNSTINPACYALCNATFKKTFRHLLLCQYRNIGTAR", "experiment": "Muscarinic hM4 Agonist GloSensor cAMP Assay", "format": "cell-based", "settings": "geometric mean; for Emax: Emax: maximum asymptote of concentration response curve, relative to ACh positive control (EC100) and DMSO, read-out: % maximum effect; for EC50: HEK293 human/M4/GloSensor cells, EC80 isoproterenol, number of determinations in parentheses, read-out: EC50", "procedure": "Muscarinic hM4 Agonist GloSensor cAMP Assay Methods\nCompounds were prepared in advance of the assay. Test compounds were solubilized in 100% dimethyl sulfoxide (DMSO, Sigma D8418) to a concentration of 30 mM. A 10-point intermediate dilution series using half log dilutions was created in 100% DMSO with a top concentration of 4 mM. The serially diluted compounds were spotted as 200 nL/well in a 384-well plate (Matrix Catalog Number 4325). The final compound concentration range in the assay was […] to 0.3 nM with a final DMSO concentration of 0.25%.\nHuman M4 mAChR expressing stable cell lines were generated using a parental HEK cell expressing the GloSensor construct (Promega Sor-L9 HEK293 human/M4/GloSensor Cell Clone Number 40). The cells were grown in 90% Dulbecco's Modified Eagle Medium (DMEM, Gibco 11960), 10% fetal bovine serum (FBS, Hyclone CH.30160-03), 1% Penicillin/Streptomycin (Gibco 15070-063), 500 µg/mL Geneticin (Gibco 10131-027), 200 µg/mL Hygromycin B (Invitrogen 10687-010) and 1% Glutamax (Thermo Fisher 35050061).\nOne day prior to assay, the cells were lifted using dissociation buffer (Gibco 13151-014) and spun in a centrifuge at 250 times gravity for 5 minutes at room temperature. Supernatant was removed and the cell pellet was resuspended in growth media to a concentration of […]. Cells were then added to white poly-d-lysine coated plates (Becton Dickinson 356661) as 40 μL per well (25,000 cells) and incubated overnight (20-24 hours) in a 37° C. humidified incubator with 5% carbon dioxide (C02).\nThe following day, culture media was removed from the cell plates and replaced with […] equilibration medium containing 88% CO2-independent medium (Invitrogen 18045088), 10% FBS and 2% GloSensor cAMP reagent (Promega E1291) that had been warmed to 37° C. Plates were then covered and incubated for 2 hours at room temperature while protected from light.\nTo the previously prepared serially diluted compound plates, 200 nL of 4 mM ACh (Sigma A2661, 10 μM final) or 200 nL of 100% DMSO (0.25% final) was added to the positive and negative control wells, respectively. Compound plates were then diluted by adding 16 μL of C02-independent media containing 10% FBS and an EC80 concentration of isoproterenol (Sigma 16504). Prior to compound testing, concentration response curves were run for isoproterenol to determine the EC80 concentration. At the end of the 2 hour equilibration, 10 µL was transferred from the compound plates to the cell plates. The cell plates were incubated an additional 7 minutes at room temperature and then read using a Multi-label EnVision plate reader (Perkin Elmer) for luminescence.\nThe raw data, expressed as relative light units, was analyzed using Activity Base (IDBS). The percent effect at each compound concentration was calculated based on and relative to the amount of cAMP produced by the positive and negative control wells contained on each assay plate. The positive control wells contained an EC100 concentration of ACh and the negative control wells contained only DMSO. The concentration and % effect values were fit using a four-parameter logistic dose response equation, and the concentration required for 50% effect (EC50) was determined as well as the maximum asymptote of the concentration response curve to define the efficacy."}
{"smiles": "CCOC(=O)N1CC2(CCC(N3CCN(c4ncccc4-c4cnsn4)CC3)C2)C1", "note": "(centres unmarked) [Example 33, ethyl 6-{4-[3-(1,2,5-thiadiazol-3-yl)pyridin-2-yl]piperazin-1-yl}-2-azaspiro[3.4]octane-2-carboxylate]", "values": [{"measurement": "Emax", "value": 92.3, "unit": "%"}, {"measurement": "EC50", "value": 1.31, "unit": "nM"}]}
{"smiles": "CCOC(=O)N1CC2(CC(N3CCN(c4ncccc4-c4cnccn4)CC3)C2)C1", "note": "[Example 35, ethyl 6-{4-[3-(pyrazin-2-yl)pyridin-2-yl]piperazin-1-yl}-2-azaspiro[3.3]heptane-2-carboxylate]", "values": [{"measurement": "Emax", "value": 94.2, "unit": "%"}, {"measurement": "EC50", "value": 304, "unit": "nM"}]}
{"smiles": "CCOC(=O)N1CC2(CCC(N3CCN(c4ncccc4-c4sc(C)nc4C)CC3)C2)C1", "note": "(centres unmarked) [Example 36, ethyl 6-{4-[3-(2,4-dimethyl-1,3-thiazol-5-yl)pyridin-2-yl]piperazin-1-yl}-2-azaspiro[3.4]octane-2-carboxylate]", "values": [{"measurement": "Emax", "value": 80.6, "unit": "%"}, {"measurement": "EC50", "value": 7.72, "unit": "nM"}]}
{"smiles": "CCOC(=O)N1CC2(CCC(N3CCN(c4ncccc4-c4cncc(OC(F)F)c4)CC3)C2)C1", "note": "(centres unmarked) [Example 37, ethyl 6-{4-[5′-(difluoromethoxy)-3,3′-bipyridin-2-yl]piperazin-1-yl}-2-azaspiro[3.4]octane-2-carboxylate]", "values": [{"measurement": "Emax", "value": 24.7, "unit": "%"}, {"measurement": "EC50", "value": 6.1, "unit": "nM"}]}
{"smiles": "CCOC(=O)N1CC2(CCC(N3CCN(c4ncccc4-c4ccc(OC)nc4)CC3)C2)C1", "note": "(centres unmarked) [Example 38, ethyl 6-[4-(6′-methoxy-3,3′-bipyridin-2-yl)piperazin-1-yl]-2-azaspiro[3.4]octane-2-carboxylate]", "values": [{"measurement": "Emax", "value": 74.7, "unit": "%"}, {"measurement": "EC50", "value": 1.17, "unit": "nM"}]}
{"smiles": "CCOC(=O)N1CC2(CCC(N3CCN(c4ncccc4-c4ccc5nccn5c4)CC3)C2)C1", "note": "(centres unmarked) [Example 39, ethyl 6-{4-[3-(imidazo[1,2-a]pyridin-6-yl)pyridin-2-yl]piperazin-1-yl}-2-azaspiro[3.4]octane-2-carboxylate]", "values": [{"measurement": "Emax", "value": 59.6, "unit": "%"}, {"measurement": "EC50", "value": 11.7, "unit": "nM"}]}
{"smiles": "CCOC(=O)N1CC2(CCC(N3CCN(c4ncccc4-c4ccc5nncn5c4)CC3)C2)C1", "note": "(centres unmarked) [Example 40, ethyl 6-{4-[3-([1,2,4]triazolo[4,3-a]pyridin-6-yl)pyridin-2-yl]piperazin-1-yl}-2-azaspiro[3.4]octane-2-carboxylate]", "values": [{"measurement": "Emax", "value": 81.6, "unit": "%"}, {"measurement": "EC50", "value": 12, "unit": "nM"}]}
{"smiles": "CCOC(=O)N1CC2(CC[C@@H](N3CCN(c4nccnc4N4CCOCC4)CC3)C2)C1", "note": "[Example 42, ethyl (6R)-6-{4-[3-(morpholin-4-yl)pyrazin-2-yl]piperazin-1-yl}-2-azaspiro[3.4]octane-2-carboxylate]", "values": [{"measurement": "Emax", "value": 92.9, "unit": "%"}, {"measurement": "EC50", "value": 12.3, "unit": "nM"}]}
{"smiles": "CCOC(=O)N1CC2(CC[C@@H](N3CCN(c4nccnc4N4CCC(OC)CC4)CC3)C2)C1", "note": "[Example 43, ethyl (6R)-6-{4-[3-(4-methoxypiperidin-1-yl)pyrazin-2-yl]piperazin-1-yl}-2-azaspiro[3.4]octane-2-carboxylate]", "values": [{"measurement": "Emax", "value": 55.5, "unit": "%"}, {"measurement": "EC50", "value": 1.51, "unit": "nM"}]}
{"smiles": "CCOC(=O)N1CC2(CC[C@@H](N3CCN(c4ncccc4N4CC5(COC5)C4)CC3)C2)C1", "note": "[Example 44, ethyl (6R)-6-{4-[3-(2-oxa-6-azaspiro[3.3]hept-6-yl)pyridin-2-yl]piperazin-1-yl}-2-azaspiro[3.4]octane-2-carboxylate]", "values": [{"measurement": "Emax", "value": 92.5, "unit": "%"}, {"measurement": "EC50", "value": 1, "unit": "nM"}]}
{"smiles": "CCOC(=O)N1CC2(CCC(N3CCN(c4ncccc4-c4cccnn4)CC3)C2)C1", "note": "(centres unmarked) [Example 45, ethyl 6-{4-[3-(pyridazin-3-yl)pyridin-2-yl]piperazin-1-yl}-2-azaspiro[3.4]octane-2-carboxylate]", "values": [{"measurement": "Emax", "value": 35.2, "unit": "%"}, {"measurement": "EC50", "value": 8.2, "unit": "nM"}]}
{"smiles": "CCOC(=O)N1CC2(CC[C@@H](N3CCN(c4ncccc4-c4ccncn4)CC3)C2)C1", "note": "[Example 46, ethyl (6R)-6-{4-[3-(pyrimidin-4-yl)pyridin-2-yl]piperazin-1-yl}-2-azaspiro[3.4]octane-2-carboxylate]", "values": [{"measurement": "Emax", "value": 96.6, "unit": "%"}, {"measurement": "EC50", "value": "< 1.75", "unit": "nM"}]}
{"smiles": "CCOC(=O)N1CC2(CC[C@@H](N3CCN(c4ncccc4-c4cnc(C)nc4)CC3)C2)C1", "note": "[Example 47, ethyl (6R)-6-{4-[3-(2-methylpyrimidin-5-yl)pyridin-2-yl]piperazin-1-yl}-2-azaspiro[3.4]octane-2-carboxylate]", "values": [{"measurement": "Emax", "value": 63.5, "unit": "%"}, {"measurement": "EC50", "value": 2.78, "unit": "nM"}]}
{"smiles": "CCOC(=O)N1CC2(CCC(N3CCN(c4ncccc4-c4cnc(O)cn4)CC3)C2)C1", "note": "(centres unmarked) [Example 48, ethyl 6-{4-[3-(5-hydroxypyrazin-2-yl)pyridin-2-yl]piperazin-1-yl}-2-azaspiro[3.4]octane-2-carboxylate]", "values": [{"measurement": "Emax", "value": 83.9, "unit": "%"}, {"measurement": "EC50", "value": 8.49, "unit": "nM"}]}
{"smiles": "CCOC(=O)N1CC2(CC[C@@H](N3CCN(c4ncccc4-c4cnn(CCCCC#N)c4)CC3)C2)C1", "note": "[Example 49, ethyl (6R)-6-(4-{3-[1-(4-cyanobutyl)-1H-pyrazol-4-yl]pyridin-2-yl}piperazin-1-yl)-2-azaspiro[3.4]octane-2-carboxylate]", "values": [{"measurement": "Emax", "value": 60.9, "unit": "%"}, {"measurement": "EC50", "value": 0.596, "unit": "nM"}]}
{"smiles": "CCOCCn1cc(-c2cccnc2N2CCN([C@@H]3CCC4(C3)CN(C(=O)OCC)C4)CC2)cn1", "note": "[Example 50, ethyl (6R)-6-(4-{3-[1-(2-ethoxyethyl)-1H-pyrazol-4-yl]pyridin-2-yl}piperazin-1-yl)-2-azaspiro[3.4]octane-2-carboxylate]", "values": [{"measurement": "Emax", "value": 89.4, "unit": "%"}, {"measurement": "EC50", "value": "< 0.389", "unit": "nM"}]}
{"smiles": "CCOC(=O)N1CC2(CC[C@@H](N3CCN(c4ncccc4-c4nnc(C)o4)CC3)C2)C1", "note": "[Example 51, ethyl (6R)-6-{4-[3-(5-methyl-1,3,4-oxadiazol-2-yl)pyridin-2-yl]piperazin-1-yl}-2-azaspiro[3.4]octane-2-carboxylate]", "values": [{"measurement": "Emax", "value": 68.6, "unit": "%"}, {"measurement": "EC50", "value": 1.99, "unit": "nM"}]}
{"smiles": "CCOC(=O)N1CC2(CCC(N3CCN(c4ncccc4-c4ccc(NC(C)=O)cc4)CC3)C2)C1", "note": "(centres unmarked) [Example 52, ethyl 6-(4-(3-(4-acetamidophenyl)pyridin-2-yl)piperazin-1-yl)-2-azaspiro[3.4]octane-2-carboxylate]", "values": [{"measurement": "Emax", "value": 92, "unit": "%"}, {"measurement": "EC50", "value": 0.568, "unit": "nM"}]}
{"smiles": "CCOC(=O)N1CC2(CCC(N3CCN(c4ncccc4-c4ccc(C#N)cc4)CC3)C2)C1", "note": "(centres unmarked) [Example 53, ethyl 6-(4-(3-(4-cyanophenyl)pyridin-2-yl)piperazin-1-yl)-2-azaspiro[3.4]octane-2-carboxylate]", "values": [{"measurement": "Emax", "value": 97, "unit": "%"}, {"measurement": "EC50", "value": 1.75, "unit": "nM"}]}
